US7524639B2, “Assay for screening antipsychotic drugs” (priority 2003, dated 2009)
Read-outs that look alike come from different tables or passages of the source.

Legend:
[1] = values from Goodman & Gilman's (Baldessarini and Tarazi 2001) or other published medical sources, cited from earlier work
[2] = target: T1, rat 5-HT2A receptor tagged with EGFP (Rattus norvegicus, UniProt P14842); test: Internalization of GFP-tagged 5-HT2A receptor in SB1 cells (HEK293 stable line), confocal fluorescence microscopy; format: cell-based; settings: drug applied for 10 mins, cycloheximide present
T1 construct: tagged at the C-terminus of the full-length rat 5-HT2A receptor (SR2-GFP); expressed in transfected cells; transiently transfected, differentiated N1E-115 cells (A2)
T1 sequence (P14842 whole entry): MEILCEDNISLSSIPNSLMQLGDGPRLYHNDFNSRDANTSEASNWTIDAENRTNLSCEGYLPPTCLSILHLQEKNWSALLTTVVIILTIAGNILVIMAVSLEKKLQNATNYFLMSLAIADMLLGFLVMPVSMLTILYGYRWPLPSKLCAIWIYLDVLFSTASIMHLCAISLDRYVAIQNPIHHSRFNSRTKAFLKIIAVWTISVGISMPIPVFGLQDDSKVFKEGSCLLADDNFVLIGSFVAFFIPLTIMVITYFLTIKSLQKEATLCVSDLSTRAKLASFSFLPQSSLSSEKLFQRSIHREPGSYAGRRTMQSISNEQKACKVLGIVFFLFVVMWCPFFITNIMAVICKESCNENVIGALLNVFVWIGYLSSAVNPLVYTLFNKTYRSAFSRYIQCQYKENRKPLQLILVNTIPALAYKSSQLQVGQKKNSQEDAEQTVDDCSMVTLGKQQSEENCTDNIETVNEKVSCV
Protocol: Generation of SR2-GFP receptor and HEK293 cells stably expressing SR2-GFP receptors: Enhanced green fluorescence protein (EGFP) had been tagged at the C-terminus of the full-length rat 5-HT2A receptor (SR2-GFP) and a stable line, SB-1, expressing fluorescent SR2-GFP receptors was established in the HEK293 cell line.
In order to study internalization of the 5-HT2A receptor in SB1 cells, cells were plated onto poly-DL-ornithine (20 μg/ml)—coated coverslip dishes and grown to 60-70% confluency. After 24 hrs in culture, cells were washed twice with serum free-DMEM to remove endogenous 5-HT present in serum. Protein synthesis was then blocked with cycloheximide at 100 μg/ml for 5 hrs to eliminate fluorescence from receptors being synthesized and present in the Golgi. […] Antipsychotics or an agonist such as serotonin (i.e. positive control) at the desired concentrations in DMEM were then applied for 10 mins. At the end of this period, cells were fixed in 4% paraformaldehyde in phosphate buffered saline (PBS) for 30 min, washed with PBS and imaged using a confocal microscope as described below.

[3] = target: T1, rat 5-HT2A receptor tagged with EGFP; test: Internalization of GFP-tagged 5-HT2A receptor in transiently transfected, differentiated N1E-115 neuronal cells, confocal fluorescence microscopy; format: cell-based; settings: drug applied for 10 mins, cycloheximide present
Description: A laser-scanning confocal microscope (Model MRC1024—BioRad) attached to a Nikon inverted microscope (Nikon eclipse TE300) and Lasersharp acquisition software were used in this case. A 60× oil immersion objective (NA=1.4) and 20× objective (NA=0.75) were used with laser power at 30% in all studies. […] Images were processed with Adobe Photoshop software using identical values for contrast and brightness. Typically 100-150 cells were randomly chosen and imaged in any one experiment and all experiments were repeated at least three times. In all experiments, cycloheximide was present until the cells were fixed. The number of cells that show internalized fluorescence and the pattern of fluoresence were estimated.
To study internalization of the 5-HT2A receptor in N1E-115 cells, undifferentiated N1E-115 cells grown on cover slip dishes cells were plated onto poly-DL-ornithine (20 μg/ml)—coated coverslip dishes and grown to 60-70% confluency. These cells were transfected with 2 μg of the SR2-GFP DNA mixed with 10 μg of lipofectamine in 1 ml OptiMEM media. 24 hrs after transfection, differentiation medium (1% DMSO+1% FBS+1% AB-AM mix in DMEM) was added in place of 10% DMEM. After 3 days, differentiated cells formed long neurites.

## O=C1CCc2ccc(OCCCCN3CCN(c4cccc(Cl)c4Cl)CC3)cc2N1 [Aripiprazole]
[1]
  Extrapyramidal side effects (EPS): Very low
[2]
  Receptor internalization SB1 cells (pattern of internalization): Type A
[3]
  Receptor internalization N1E-115 cells (pattern of internalization): Type A

## CN1CCN(C2=Nc3cc(Cl)ccc3Nc3ccccc32)CC1 [Clozapine]
[1]
  Extrapyramidal side effects (EPS): Very low
[1]; listed as clozapine
  Extrapyramidal side effects (EPS): negligible

## OCCN1CCN(CCCN2c3ccccc3Sc3ccc(C(F)(F)F)cc32)CC1 [Fluphenazine]
[1]
  Extrapyramidal side effects (EPS): Very high
[1]; listed as fluphenazine
  Extrapyramidal side effects (EPS): severe

## O=C(CCCN1CCC(O)(c2ccc(Cl)cc2)CC1)c1ccc(F)cc1 [Haloperidol]
[1]
  Extrapyramidal side effects (EPS): Very high
[1]; listed as haloperidol
  Extrapyramidal side effects (EPS): severe

## CN1CCN(C2=Nc3ccccc3Oc3ccc(Cl)cc32)CC1 [Loxapine]
[1]
  Extrapyramidal side effects (EPS): Moderate

## Cc1cc2c(s1)Nc1ccccc1N=C2N1CCN(C)CC1 [Olanzapine]
[1]
  Extrapyramidal side effects (EPS): Very low
[1]; listed as olanzapine
  Extrapyramidal side effects (EPS): negligible

## OCCOCCN1CCN(C2=Nc3ccccc3Sc3ccccc32)CC1 [Quitapine]
[1]
  Extrapyramidal side effects (EPS): Very low

## Cc1nc2n(c(=O)c1CCN1CCC(c3noc4cc(F)ccc34)CC1)CCCC2 [Risperidone]
[1]
  Extrapyramidal side effects (EPS): Moderate

## O=C1Cc2cc(CCN3CCN(c4nsc5ccccc45)CC3)c(Cl)cc2N1 [Ziprasidone]
[1]
  Extrapyramidal side effects (EPS): Moderate
[2]
  Receptor internalization SB1 cells (pattern of internalization): Type B
[3]
  Receptor internalization N1E-115 cells (pattern of internalization): Type B

## OCCN1CCN(CC/C=C2/c3ccccc3Sc3ccc(Cl)cc32)CC1 [Zuclopenthixol]
[1]
  Extrapyramidal side effects (EPS): Moderate
[2]
  Receptor internalization SB1 cells (pattern of internalization): Type C
[3]
  Receptor internalization N1E-115 cells (pattern of internalization): Type B
